Experimental data reported in patent US9012497B2, “Cyclohexyl carbamate compounds as active anti-cellulite ingredients” (Symrise AG, priority 2010, dated 2015).

Columns and labels:
3T3-L1 cells [1] = experiment: Adipogenesis assay (in vitro), Nile Red lipid staining; type: cell-based; conditions: Mus musculus, mean values of at least 2 independent tests, read-out: Adipogenesis inhibition IC50
Description: 3T3-L1 cells (mouse embryonic fibroblast-like adipocyte cell line) are seeded in a 48-well plate with collagen I-coating in a concentration of 3×10^4 cells/well. After 72 h cultivation at 37° C. and 5% CO2 in DMEM (Dulbecco's Modified Eagle Medium), enriched with 10% calf serum, various concentrations of the test substances in DMEM, enriched with 10% foetal calf serum and to which are added 1 μg/ml insulin, 0.25 μM dexamethasone and 0.5 mM IBMX (3-isobutyl-1-methylxanthine), are added and incubated for a further 48 h. A media change takes place, in that DMEM, enriched with 10% foetal calf serum and with 1 μg/ml insulin added, are applied. After renewed cultivation for 48 h, a further media change takes place, in which DMEM, enriched with 10% foetal calf serum, is applied.
After a further incubation for 72 h, the intracellularly stored lipids are quantified as a measure for the differentiation of the cells by measuring the fluorescence after staining of the lipids with the fluorescent dye Nile Red.
The inhibition of the adipogenesis in the presence of the test substances is calculated according to the following equation:
[formula] wherein RFU test substance=relative fluorescent units of the wells with test substance and with cells RFU control=relative fluorescent units of the wells without test substance, but with cells RFU control without cells=relative fluorescent units of the wells without test substance and without cells The IC50 is calculated from the adipogenesis inhibition [%] in a series of dilutions of tested samples. This is the concentration at which the adipogenesis is 50% inhibited.

3T3-L1 cells [2] = experiment: Lipolysis assay, in vitro on 3T3-L1 cells, free glycerol release; type: cell-based; conditions: Mus musculus; differentiated 3T3-L1 cells, about 20 hours of incubation; mean values from at least 2 independent tests; read-out: Stimulation of lipolysis EC50
Description: 3T3-L1 cells (mouse embryonic fibroblast-like adipocyte cell line) are seeded in a 48-well plate with collagen I-coating in a concentration of 3×10^4 cells/well. The cultivation and differentiation of the cells takes place analogously to the details in Example 2 (adipogenesis assay).
Various concentrations of the test substances are applied to the cells in DMEM, with bovine serum albumen added. After about 20 hours of incubation, the quantification of free glycerol in the supernatant of the cells takes place, which is released by the cells after hydrolysis of triglycerides in the cells and is a measure of the lipolysis of the cells. The quantification of the free glycerol is carried out based on an enzymatic method with a free glycerol reagent.
The stimulation of the lipolysis in the presence of test substances is calculated according to the following equation:
[formula] wherein A test substance=absorption of the wells with test substance and with cells A test substance without cells=absorption of the wells with test substance without cells (absorption control) A control=absorption of the wells without test substance, but with cells A control without cells=absorption of the wells without test substance and without cells
The EC50 is calculated from the lipolysis stimulation [%] in a series of dilutions of tested samples. This is the concentration at which the lipolysis is 50% stimulated.

lipoprotein lipase (LPL) = target: T1, lipoprotein lipase (LPL) (Mus musculus, UniProt P11152); experiment: Inhibition of LPL (lipogenesis assay), MUF oleate hydrolysis; type: biochemical; conditions: LPL obtained from differentiated 3T3-L1 cells; mean values of at least 2 independent tests
T1 construct: endogenous in cells; host or cells: differentiated 3T3-L1 cells (mouse); heparin-released supernatant
T1 sequence (P11152 28-474): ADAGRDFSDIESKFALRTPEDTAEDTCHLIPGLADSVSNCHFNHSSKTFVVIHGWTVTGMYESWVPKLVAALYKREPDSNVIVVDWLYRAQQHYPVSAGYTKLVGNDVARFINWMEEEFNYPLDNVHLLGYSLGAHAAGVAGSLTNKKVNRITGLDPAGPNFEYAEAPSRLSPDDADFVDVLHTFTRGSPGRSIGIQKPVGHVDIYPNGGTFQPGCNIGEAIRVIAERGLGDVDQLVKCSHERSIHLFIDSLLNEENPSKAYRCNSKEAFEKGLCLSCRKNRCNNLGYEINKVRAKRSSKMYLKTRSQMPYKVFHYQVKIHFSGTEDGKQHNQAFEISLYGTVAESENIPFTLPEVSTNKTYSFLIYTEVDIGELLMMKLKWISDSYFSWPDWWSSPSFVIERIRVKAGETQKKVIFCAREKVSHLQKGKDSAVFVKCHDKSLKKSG
Excerpt: (§1) Lipogenesis is perceived as the storage of triglycerides in adipocytes. The inhibition of this storage can take place by means of the inhibition of the activity of extracellular lipoprotein lipase (LPL) in that the hydrolysis of extracellular triglycerides and therefore the absorption of free fatty acids by adipocytes are reduced. As a preliminary test, the inhibition of pancreatic lipase (PL) is investigated.
The results of the inhibition of the PL are used as a preliminary test and are confirmed on LPL. To obtain LPL, 3T3-L1 cells (mouse embryonic fibroblast-like adipocyte cell line) are seeded in a 6-well plate with collagen I-coating in a concentration of 3×10^5 cells/well. The cultivation and differentiation of the cells takes place analogously to the details in Example 2 (adipogenesis assay). During the differentiation LPL is increasingly expressed. The LPL is present in a membrane-bound state and is released by one hour incubation with heparin solution at 2-8° C. to the supernatant of the cells.
The LPL thus obtained, in the presence of test substances in different use concentrations, has methylumbelliferyl oleate (MUF oleate) added as the substrate. Fluorescent methylumbelliferyl (MUF) is produced by hydrolysis of the MUF oleate by LPL and is quantified. The inhibition of the hydrolysis of the MUF oleate is a measure of the inhibition of the activity of the LPL and therefore the lipogenesis.
[formula] wherein MUF test substance=MUF concentration of the wells with test substance and with LPL MUF control=MUF concentration of the wells without test substance, but with LPL MUF control without LPL=MUF concentration of the wells without test substance and without LPL
The IC50 is calculated from the inhibition of the LPL [%] in a series of dilutions of tested samples. This is the concentration at which the activity of the LPL and therefore the lipogenesis is 50% inhibited.

pancreatic lipase (PL) = target: T2, pancreatic lipase (PL) (Sus scrofa, UniProt P00591); experiment: Inhibition of PL, MUF oleate hydrolysis; type: biochemical; conditions: mean values of at least 2 independent tests
T2 construct: purchased Sigma-Aldrich
T2 sequence (P00591 1-450): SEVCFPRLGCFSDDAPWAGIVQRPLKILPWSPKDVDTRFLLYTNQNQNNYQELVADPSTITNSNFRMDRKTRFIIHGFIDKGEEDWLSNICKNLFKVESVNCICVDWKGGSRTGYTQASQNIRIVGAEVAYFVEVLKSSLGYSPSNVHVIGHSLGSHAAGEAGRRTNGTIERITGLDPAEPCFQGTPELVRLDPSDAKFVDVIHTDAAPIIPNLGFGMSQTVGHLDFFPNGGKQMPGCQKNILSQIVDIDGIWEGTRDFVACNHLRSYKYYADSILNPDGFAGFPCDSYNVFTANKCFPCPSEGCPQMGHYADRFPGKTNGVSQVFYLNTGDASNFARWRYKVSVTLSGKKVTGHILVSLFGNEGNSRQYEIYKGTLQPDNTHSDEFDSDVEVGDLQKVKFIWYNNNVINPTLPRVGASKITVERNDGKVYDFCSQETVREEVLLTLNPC
Excerpt: as §1
PL (Sigma-Aldrich), in the presence of test substances in different use concentrations has methylumbelliferyl oleate (MUF oleate) added as a substrate. Fluorescent methylumelliferon (MUF), is produced by hydrolysis of the MUF oleate by PL and is quantified. The inhibition of the hydrolysis of the MUF oleate is a measure of the inhibition of activity of the PL.
[formula] wherein MUF test substance=MUF concentration of the wells with test substance and with PL MUF control=MUF concentration of the wells without test substance, but with PL MUF control without PL=MUF concentration of the wells without test substance and without PL
The IC50 is calculated from the inhibition of the PL [%] in a series of dilutions of tested samples. This is the concentration, at which the activity of the PL is 50% inhibited.

| SMILES | IC50 (3T3-L1 cells [1]) [µM] | EC50 (3T3-L1 cells [2]) [µM] | IC50 (lipoprotein lipase (LPL)) [µM] | IC50 (pancreatic lipase (PL)) [µM] |
| --- | --- | --- | --- | --- |
| CC1CC(C)CC(OC(=O)NC2CCCCC2)C1 (stereo not shown) [BIO1743, Cyclohexyl-carbamic acid 3,5-dimethyl-cyclohexyl ester] | 91 | 1890 |  |  |
| CC(C)(C)C1CCC(OC(=O)NC2CCCCC2)CC1 (stereo not shown) [BIO1747, Cyclohexyl-carbamic acid 4-tert-butyl-cyclohexyl ester] | 120 | 610 |  |  |
| C=C(C)C1CCC(C)CC1OC(=O)NCCCC (stereo not shown) [BIO1615, Butyl-carbamic acid 2-isopropenyl-5-methyl-cyclohexyl ester] | 160 | 820 | 870 | 340 |
| CCCCNC(=O)OC1CCCC(C)C1C (stereo not shown) [BIO1842, Butyl-carbamic acid 2,3-dimethyl-cyclohexyl ester] | 150 | 230 |  | 670 |
| Cc1ccc(NC(=O)OC2CC(C)CC(C)C2)cc1 (stereo not shown) [BIO1822, p-Tolyl-carbamic acid 3,5-dimethyl-cyclohexyl ester] | 170 |  |  |  |
| CC1CCCC(OC(=O)Nc2ccccc2O)C1C (stereo not shown) [BIO1643, (2-Hydroxy-phenyl)-carbamic acid 2,3-dimethyl-cyclohexyl ester] | 14 |  |  | 420 |
| CCNC(=O)OC1CCC(C(C)C)C(C)C1 (stereo not shown) [BIO1560, Ethyl-carbamic acid 4-isopropyl-3-methyl-cyclohexyl ester] |  |  |  | 560 |
| Cc1ccc(NC(=O)OC2CCCCC2C(C)C)cc1 (stereo not shown) [BIO1824, p-Tolyl-carbamic acid 2-isopropyl-cyclohexyl ester] | 92 | 510 |  |  |
| CCNC(=O)OC1CCCC(C)C1C (stereo not shown) [BIO1581, Ethyl-carbamic acid 2,3-dimethyl-cyclohexyl ester] | 160 |  |  | 240 |
| CCCCNC(=O)OC1CCCC(C)C1 (stereo not shown) [BIO1821, Butyl-carbamic acid 3-methyl-cyclohexyl ester] |  |  |  | 510 |
| CC(C)C1CCCCC1OC(=O)NCc1ccccc1 (stereo not shown) [BIO1748, Benzyl-carbamic acid 2-isopropyl-cyclohexyl ester] | 59 | 810 |  | 2170 |
| COc1ccccc1NC(=O)OC1CC(C)CC(C)(C)C1 (stereo not shown) [BIO1703, (2-Methoxy-phenyl)-carbamic acid 3,3,5-trimethyl-cyclohexyl ester] | 51 |  |  | 1860 |
| CC1CC(C)CC(OC(=O)Nc2ccccc2)C1 (stereo not shown) [BIO1685, Phenyl-carbamic acid 3,5-dimethyl-cyclohexyl ester] | 340 | 600 |  |  |
| CCNC(=O)OC1CC(C)CC(C)C1 (mixture of isomers) [BIO1561, Ethyl-carbamic acid 3,5-dimethyl-cyclohexyl ester] |  |  |  | 400 |
| CCCCCCNC(=O)OC1CCCCC1C(C)C (stereo not shown) [BIO1851, Hexyl-carbamic acid 2-isopropyl-cyclohexyl ester] | 86 | 1170 |  | 1240 |
| COc1ccccc1NC(=O)OC1C(C)CCC(C)C1C (stereo not shown) [BIO1701, (2-Methoxy-phenyl)-carbamic acid 2,3,6-trimethyl-cyclohexyl ester] | 110 |  |  | 470 |
| CCCCNC(=O)OC1CC(C)CC(C)C1 (stereo not shown) [BIO1840, Butyl-carbamic acid 3,5-dimethyl-cyclohexyl ester] | 160 | 700 |  | 550 |
| COc1ccccc1NC(=O)OC1CCCCC1C(C)C (stereo not shown) [BIO1744, (2-Methoxy-phenyl)-carbamic acid 2-isopropyl-cyclohexyl ester] |  |  |  | 230 |
| CCCCCCNC(=O)OC1CC(C)CC(C)(C)C1 (stereo not shown) [BIO1850, Hexyl-carbamic acid 3,3,5-trimethyl-cyclohexyl ester] | 360 |  | 680 | 520 |
| O=C(Nc1ccccc1)OC1CCCCC1 [BIO1741, Phenyl-carbamic acid cyclohexyl ester] | 440 | 360 |  |  |
| CC1CC(C)CC(OC(=O)NCc2ccccc2)C1 (stereo not shown) [BIO1745, Benzyl-carbamic acid 3,5-dimethyl-cyclohexyl ester] | 120 |  |  | 130 |
| CCNC(=O)OC1CCC(C)C(C)C1 (stereo not shown) [BIO1582, Ethyl-carbamic acid 3,4-dimethyl-cyclohexyl ester] |  |  |  | 420 |
| CCNC(=O)OC1CC2CCC1(C)C2(C)C (stereo not shown) [BIO1573, Ethyl-carbamic acid 1,7,7-trimethyl-bicyclo[2.2.1]hept-2-yl ester] |  | 350 |  |  |
